Experimental data as given in EP4745137A1 (Gluetacs Therapeutics (Shanghai) Co., Ltd., priority 2023, dated 2025).
Blank lines part the entries; values can stand above or below the molecule they belong to.

What was measured:
GSPT1 = biological target: T1, GSPT1 (Homo sapiens, UniProt P15170+Q96SW2); assay: Western-blot assay of substrate protein degradation in hPBMCs, GSPT1; assay type: cell-based; settings: 24 hours of compound treatment, 50 nM and 500 nM tested (concentration behind the class not stated)
T1 construct: endogenous in cells; host or cells: hPBMCs (Milecell Biotechnologies)
T1 sequence (P15170 whole entry): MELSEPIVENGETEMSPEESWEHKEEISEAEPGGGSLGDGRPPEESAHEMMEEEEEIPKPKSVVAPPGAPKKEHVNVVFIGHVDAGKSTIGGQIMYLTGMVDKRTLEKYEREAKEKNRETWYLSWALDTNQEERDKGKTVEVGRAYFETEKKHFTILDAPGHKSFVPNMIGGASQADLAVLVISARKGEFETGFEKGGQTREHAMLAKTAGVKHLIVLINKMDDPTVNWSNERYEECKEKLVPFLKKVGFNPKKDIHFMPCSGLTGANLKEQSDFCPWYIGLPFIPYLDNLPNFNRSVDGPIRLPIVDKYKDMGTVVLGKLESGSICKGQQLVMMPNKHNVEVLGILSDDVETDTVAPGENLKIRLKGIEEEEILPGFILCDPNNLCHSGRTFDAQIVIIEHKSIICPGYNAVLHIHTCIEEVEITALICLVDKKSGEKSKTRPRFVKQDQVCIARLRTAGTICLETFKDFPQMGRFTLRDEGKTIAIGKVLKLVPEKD
T1 sequence (Q96SW2 whole entry): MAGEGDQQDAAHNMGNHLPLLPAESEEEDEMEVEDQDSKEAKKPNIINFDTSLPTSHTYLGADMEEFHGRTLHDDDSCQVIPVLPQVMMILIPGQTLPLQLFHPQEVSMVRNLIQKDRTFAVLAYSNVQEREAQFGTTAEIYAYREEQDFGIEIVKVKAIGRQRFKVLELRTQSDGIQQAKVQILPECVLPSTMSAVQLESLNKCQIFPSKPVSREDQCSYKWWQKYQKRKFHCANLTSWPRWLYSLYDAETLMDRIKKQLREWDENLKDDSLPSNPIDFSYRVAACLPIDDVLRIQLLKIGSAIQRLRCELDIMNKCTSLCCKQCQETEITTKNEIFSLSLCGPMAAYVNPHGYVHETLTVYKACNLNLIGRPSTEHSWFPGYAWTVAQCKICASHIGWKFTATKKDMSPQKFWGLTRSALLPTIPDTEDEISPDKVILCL
T1 sequence (Q16531 whole entry partner): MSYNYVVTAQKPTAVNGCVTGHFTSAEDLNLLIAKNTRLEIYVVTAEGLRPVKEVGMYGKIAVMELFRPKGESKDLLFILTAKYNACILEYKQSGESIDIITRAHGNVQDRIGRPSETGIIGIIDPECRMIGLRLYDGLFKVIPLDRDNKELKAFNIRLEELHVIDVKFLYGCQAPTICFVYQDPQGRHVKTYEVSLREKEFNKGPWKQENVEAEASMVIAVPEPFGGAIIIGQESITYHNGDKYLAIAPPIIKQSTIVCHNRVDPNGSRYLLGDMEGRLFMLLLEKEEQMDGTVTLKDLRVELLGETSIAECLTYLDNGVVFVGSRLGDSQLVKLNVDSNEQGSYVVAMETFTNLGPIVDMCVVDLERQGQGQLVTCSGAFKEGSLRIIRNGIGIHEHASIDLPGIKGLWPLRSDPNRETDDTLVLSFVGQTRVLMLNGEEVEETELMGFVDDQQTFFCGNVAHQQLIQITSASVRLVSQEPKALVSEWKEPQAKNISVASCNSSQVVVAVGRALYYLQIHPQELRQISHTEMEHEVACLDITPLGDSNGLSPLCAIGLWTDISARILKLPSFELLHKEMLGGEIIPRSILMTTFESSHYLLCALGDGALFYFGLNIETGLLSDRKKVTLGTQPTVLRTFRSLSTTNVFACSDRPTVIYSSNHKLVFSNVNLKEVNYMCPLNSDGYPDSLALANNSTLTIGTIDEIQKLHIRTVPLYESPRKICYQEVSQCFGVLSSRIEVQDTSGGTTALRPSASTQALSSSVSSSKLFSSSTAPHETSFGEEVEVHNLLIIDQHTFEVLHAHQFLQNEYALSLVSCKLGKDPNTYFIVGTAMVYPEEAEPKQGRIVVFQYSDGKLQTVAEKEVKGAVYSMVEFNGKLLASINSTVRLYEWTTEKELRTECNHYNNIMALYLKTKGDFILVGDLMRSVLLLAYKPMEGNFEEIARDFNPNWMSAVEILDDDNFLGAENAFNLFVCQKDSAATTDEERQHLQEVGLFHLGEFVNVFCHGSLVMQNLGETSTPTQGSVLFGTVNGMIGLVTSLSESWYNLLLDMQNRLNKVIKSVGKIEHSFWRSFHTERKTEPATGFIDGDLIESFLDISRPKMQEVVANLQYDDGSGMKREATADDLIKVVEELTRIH

CK1α = biological target: T2, CK1α (Homo sapiens, UniProt P48729+Q96SW2); assay: Western-blot assay of substrate protein degradation in hPBMCs, CK1α; assay type: cell-based; settings: 24 hours of compound treatment, 50 nM and 500 nM tested (concentration behind the class not stated)
T2 construct: endogenous in cells; host or cells: hPBMCs (Milecell Biotechnologies)
T2 sequence (P48729 whole entry): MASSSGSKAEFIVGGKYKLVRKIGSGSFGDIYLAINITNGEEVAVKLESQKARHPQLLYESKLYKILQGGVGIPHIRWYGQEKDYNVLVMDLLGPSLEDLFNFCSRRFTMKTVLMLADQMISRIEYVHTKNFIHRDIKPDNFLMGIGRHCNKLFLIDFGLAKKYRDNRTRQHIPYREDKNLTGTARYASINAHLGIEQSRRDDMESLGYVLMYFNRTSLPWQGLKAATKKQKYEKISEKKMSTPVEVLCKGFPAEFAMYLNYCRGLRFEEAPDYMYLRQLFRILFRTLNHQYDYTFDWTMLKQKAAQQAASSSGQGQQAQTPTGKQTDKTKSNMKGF
T2 sequence (Q96SW2 whole entry): as the sequence (Q96SW2 whole entry) above
T2 sequence (Q16531 whole entry partner): as the sequence (Q16531 whole entry partner) above

IKZF1 = biological target: T3, IKZF1 (Homo sapiens, UniProt Q13422+Q96SW2); assay: Western-blot assay of substrate protein degradation in hPBMCs, IKZF1; assay type: cell-based; settings: 24 hours of compound treatment, 50 nM and 500 nM tested (concentration behind the class not stated)
T3 construct: endogenous in cells; host or cells: hPBMCs (Milecell Biotechnologies)
T3 sequence (Q13422 whole entry): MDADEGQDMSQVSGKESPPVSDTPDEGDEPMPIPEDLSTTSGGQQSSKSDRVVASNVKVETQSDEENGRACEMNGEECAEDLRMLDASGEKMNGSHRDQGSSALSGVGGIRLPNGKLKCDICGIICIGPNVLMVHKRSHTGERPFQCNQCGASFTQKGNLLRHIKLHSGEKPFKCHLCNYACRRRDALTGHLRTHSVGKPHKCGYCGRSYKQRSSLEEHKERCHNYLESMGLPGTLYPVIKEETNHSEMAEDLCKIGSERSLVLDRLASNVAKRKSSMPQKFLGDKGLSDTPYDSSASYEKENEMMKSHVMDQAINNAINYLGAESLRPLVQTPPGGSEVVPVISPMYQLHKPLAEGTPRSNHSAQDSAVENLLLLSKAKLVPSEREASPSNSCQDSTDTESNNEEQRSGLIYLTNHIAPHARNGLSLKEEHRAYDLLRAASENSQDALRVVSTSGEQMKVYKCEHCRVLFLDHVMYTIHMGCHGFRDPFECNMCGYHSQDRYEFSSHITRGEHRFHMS
T3 sequence (Q96SW2 whole entry): as the sequence (Q96SW2 whole entry) above
T3 sequence (Q16531 whole entry partner): as the sequence (Q16531 whole entry partner) above

WEE1 = biological target: T4, WEE1 (Homo sapiens, UniProt P30291+Q96SW2); assay: Western-blot assay of substrate protein degradation in hPBMCs, WEE1; assay type: cell-based; settings: 24 hours of compound treatment, 50 nM and 500 nM tested (concentration behind the class not stated)
T4 construct: endogenous in cells; host or cells: hPBMCs (Milecell Biotechnologies)
T4 sequence (P30291 whole entry): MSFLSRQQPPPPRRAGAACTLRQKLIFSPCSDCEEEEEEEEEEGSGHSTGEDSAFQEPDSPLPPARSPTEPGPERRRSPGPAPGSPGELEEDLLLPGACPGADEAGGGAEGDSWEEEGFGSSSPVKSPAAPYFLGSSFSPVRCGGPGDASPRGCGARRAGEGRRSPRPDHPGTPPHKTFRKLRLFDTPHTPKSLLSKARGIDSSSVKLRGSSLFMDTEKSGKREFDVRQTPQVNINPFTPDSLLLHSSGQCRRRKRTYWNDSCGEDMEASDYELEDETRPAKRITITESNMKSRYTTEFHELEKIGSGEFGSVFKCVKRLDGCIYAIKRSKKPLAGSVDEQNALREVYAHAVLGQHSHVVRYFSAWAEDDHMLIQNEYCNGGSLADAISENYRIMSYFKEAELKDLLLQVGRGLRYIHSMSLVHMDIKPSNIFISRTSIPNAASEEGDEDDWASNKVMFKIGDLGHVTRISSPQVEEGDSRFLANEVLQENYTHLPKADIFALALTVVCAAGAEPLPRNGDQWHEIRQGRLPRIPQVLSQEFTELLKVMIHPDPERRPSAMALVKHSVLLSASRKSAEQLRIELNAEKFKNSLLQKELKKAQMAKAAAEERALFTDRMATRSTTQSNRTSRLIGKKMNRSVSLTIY
T4 sequence (Q96SW2 whole entry): as the sequence (Q96SW2 whole entry) above
T4 sequence (Q16531 whole entry partner): as the sequence (Q16531 whole entry partner) above

IKZF3 = biological target: T5, IKZF3 (Homo sapiens, UniProt Q96SW2+Q9UKT9); assay: Western-blot assay of substrate protein degradation in hPBMCs, IKZF3; assay type: cell-based; settings: 24 hours of compound treatment, 50 nM and 500 nM tested (concentration behind the class not stated)
T5 construct: endogenous in cells; host or cells: hPBMCs (Milecell Biotechnologies)
T5 sequence (Q9UKT9 whole entry): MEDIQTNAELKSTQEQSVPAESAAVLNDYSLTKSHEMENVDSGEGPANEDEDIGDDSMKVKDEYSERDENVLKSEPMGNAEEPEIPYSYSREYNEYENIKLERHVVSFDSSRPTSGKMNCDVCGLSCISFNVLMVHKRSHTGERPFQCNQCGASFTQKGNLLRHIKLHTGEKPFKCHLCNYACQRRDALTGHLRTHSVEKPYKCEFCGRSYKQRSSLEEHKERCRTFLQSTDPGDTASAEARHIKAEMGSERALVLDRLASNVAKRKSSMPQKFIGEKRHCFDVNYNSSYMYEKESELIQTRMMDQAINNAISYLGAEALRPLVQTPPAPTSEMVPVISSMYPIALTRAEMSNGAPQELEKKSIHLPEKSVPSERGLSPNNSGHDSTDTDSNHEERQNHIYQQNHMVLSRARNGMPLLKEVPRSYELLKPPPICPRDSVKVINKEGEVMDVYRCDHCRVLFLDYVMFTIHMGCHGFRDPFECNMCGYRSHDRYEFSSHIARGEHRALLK
T5 sequence (Q96SW2 whole entry): as the sequence (Q96SW2 whole entry) above
T5 sequence (Q16531 whole entry partner): as the sequence (Q16531 whole entry partner) above

[1] = biological target: T6, human Cereblon WT GST-tagged protein (Homo sapiens, UniProt Q96SW2); assay: CRBN-binding affinity by HTRF (CEREBLON BINDING kit); settings: HTRF inhibitory activity, CEREBLON BINDING kit; read-out: HTRF IC50
T6 construct: purchased CISBIO 64BDCRBNPEH
T6 sequence (Q96SW2 whole entry): as the sequence (Q96SW2 whole entry) above

IKZF2 = biological target: T7, IKZF2 (Homo sapiens, UniProt Q96SW2+Q9UKS7); assay: Western-blot assay of substrate protein degradation in hPBMCs, IKZF2; assay type: cell-based; settings: 24 hours of compound treatment, 50 nM and 500 nM tested (concentration behind the class not stated)
T7 construct: endogenous in cells; host or cells: hPBMCs (Milecell Biotechnologies)

SMILES: O=C1CCC(N2C(=O)c3ccc(CN4CCC(c5ncnc6sc7c(c56)CCC7)CC4)cc3C2=O)C(=O)N1 (centres unmarked) [GT-06650, 5-((4-(6,7-dihydro-5H-cyclopenta[4,5]thieno[2,3-d]pyrimidin-4-yl)piperidin-1-yl)methyl)-2-(2,6-dioxopiperidin-3-yl)isoindoline-1,3-dione]
- GSPT1 substrate protein remaining % (GSPT1): B (80%< substrate protein remaining %≤ 100%)
- CK1a substrate protein remaining % (CK1α): B (80%< substrate protein remaining %≤ 100%)
- IKZF 1 substrate protein remaining % (IKZF1): B (80%< substrate protein remaining %≤ 100%)
- Weel substrate protein remaining % (WEE1): A (0% ≤ substrate protein remaining % ≤ 80%)
- IKZF3 substrate protein remaining % (IKZF3): B (80%< substrate protein remaining %≤ 100%)
- IC50 [1]: 1.5 to 1.9 µM
- IKZF2 substrate protein remaining % (IKZF2): B (80%< substrate protein remaining %≤ 100%)

SMILES: Cc1nc(C2CCN(Cc3ccc4c(c3)C(=O)N(C3CCC(=O)NC3=O)C4=O)CC2)c2c3c(sc2n1)CCC3 (centres unmarked) [GT-06651, 2-(2,6-dioxopiperidin-3-yl)-5-((4-(2-methyl-6,7-dihydro-5H-cyclopenta[4,5]thieno[2,3-d]pyrimidin-4-yl)piperidin-1-yl)methyl)isoindoline-1,3-dione]
- GSPT1 substrate protein remaining % (GSPT1): B (80%< substrate protein remaining %≤ 100%)
- CK1a substrate protein remaining % (CK1α): B (80%< substrate protein remaining %≤ 100%)
- IKZF 1 substrate protein remaining % (IKZF1): B (80%< substrate protein remaining %≤ 100%)
- Weel substrate protein remaining % (WEE1): A (0% ≤ substrate protein remaining % ≤ 80%)
- IKZF3 substrate protein remaining % (IKZF3): B (80%< substrate protein remaining %≤ 100%)
- IC50 [1]: 1 to 1.5 µM
- IKZF2 substrate protein remaining % (IKZF2): A (0% ≤ substrate protein remaining % ≤ 80%)

SMILES: O=C1CCC(N2C(=O)c3ccc(CN4CC=C(c5ncnc6sccc56)CC4)cc3C2=O)C(=O)N1 (centres unmarked) [GT-06653, 2-(2,6-dioxopiperidin-3-yl)-5-((4-(thieno[2,3-d]pyrimidin-4-yl)-3,6-dihydropyridin-1(2H)-yl)methyl)isoindoline-1,3-dione]
- GSPT1 substrate protein remaining % (GSPT1): A (0% ≤ substrate protein remaining % ≤ 80%)
- CK1a substrate protein remaining % (CK1α): B (80%< substrate protein remaining %≤ 100%)
- IKZF 1 substrate protein remaining % (IKZF1): A (0% ≤ substrate protein remaining % ≤ 80%)
- Weel substrate protein remaining % (WEE1): A (0% ≤ substrate protein remaining % ≤ 80%)
- IKZF3 substrate protein remaining % (IKZF3): A (0% ≤ substrate protein remaining % ≤ 80%)
- IC50 [1]: 0.5 to 1 µM
- IKZF2 substrate protein remaining % (IKZF2): B (80%< substrate protein remaining %≤ 100%)

More lines, main results first:

- IC50 [1]: 0.5 to 1 µM
SMILES: Cc1cc2c(C3=CCN(Cc4ccc5c(c4)C(=O)N(C4CCC(=O)NC4=O)C5=O)CC3)ncnc2s1 (centres unmarked) [GT-06655, 2-(2,6-dioxopiperidin-3-yl)-5-((4-(6-methylthieno[2,3-d]pyrimidin-4-yl)-3,6-dihydropyridin-1(2H)-yl)methyl)isoindoline-1,3-dione]
- GSPT1 substrate protein remaining % (GSPT1): A (0% ≤ substrate protein remaining % ≤ 80%)
- CK1a substrate protein remaining % (CK1α): B (80%< substrate protein remaining %≤ 100%)
- IKZF 1 substrate protein remaining % (IKZF1): A (0% ≤ substrate protein remaining % ≤ 80%)
- Weel substrate protein remaining % (WEE1): A (0% ≤ substrate protein remaining % ≤ 80%)
- IKZF3 substrate protein remaining % (IKZF3): A (0% ≤ substrate protein remaining % ≤ 80%)
- IKZF2 substrate protein remaining % (IKZF2): A (0% ≤ substrate protein remaining % ≤ 80%)

- IC50 [1]: 1 to 1.5 µM
SMILES: Cc1sc2ncnc(C3=CCN(Cc4ccc5c(c4)C(=O)N(C4CCC(=O)NC4=O)C5=O)CC3)c2c1C (centres unmarked) [GT-06657, 5-((4-(5,6-dimethylthieno[2,3-d]pyrimidin-4-yl)-3,6-dihydropyridin-1 (2H)-yl)methyl)-2-(2,6-dioxopiperidin-3-yl)isoindoline-1,3-dione]
- GSPT1 substrate protein remaining % (GSPT1): A (0% ≤ substrate protein remaining % ≤ 80%)
- CK1a substrate protein remaining % (CK1α): B (80%< substrate protein remaining %≤ 100%)
- IKZF 1 substrate protein remaining % (IKZF1): A (0% ≤ substrate protein remaining % ≤ 80%)
- Weel substrate protein remaining % (WEE1): A (0% ≤ substrate protein remaining % ≤ 80%)
- IKZF3 substrate protein remaining % (IKZF3): B (80%< substrate protein remaining %≤ 100%)
- IKZF2 substrate protein remaining % (IKZF2): B (80%< substrate protein remaining %≤ 100%)
